The target in one test is T1, HLA-A*02:01 (Homo sapiens, UniProt P04439, D140Y/D185E/D98H/E176V/E277Q/G131W/G231S/I119V/I121R/I166T/I218V/L300P/L318F/N151K/N90K/P208A/P217A/Q86G/Q94H/R138H/R169H/T345S).
T1 construct: purchased ProImmune (contracted REVEAL assay service)
In words: REVEAL binding assay of 9-mer P210 peptides. To be noted: for binding to HLA-A*02:01 (REVEAL binding score), in words: tested by ProImmune. On the procedure: The human Class-I HLA that occurs with the highest frequency in North America is HLA-A*02:01; and P210 epitope binding to HLA-A*02:01 was tested by ProImmune using the REVEAL assay. The REVEAL assay used 9-mer sequential peptides of P210 to assess binding to HLA-A*02:01 (Table 2): a plurality of 9-amino acid fragments, each identical to residues 1-9, 2-10, 3-11, 4-12, 5-13, 6-14, 7-15, 8-16, 9-17, 10-18, 11-19, or 12-20 of P210. […] ApOBKTTKQSFDL (SEQ ID NO:2) pentamer was able to detect a small but significant population of P210-specific CD8+ T cells in PBMCs from healthy HLA-A*02:01(+) volunteers (FIG. 7B-7E).
(§1) Proimmune was contracted to screen for potential binding epitopes in P210 to HLA-A*02:01. […] For pentamer staining, commercially available HLA-A*02:01 typed cryo-preserved PBMCs (Immunospot) were thawed, rinsed in anti-aggregation solution (Immunospot) and divided into 2×10^6 cell aliquots. ApOBKTTKQSFDL (SEQ ID NO:2) pentamer staining was performed according to manufacturer's instruction, with the HLA-A*02:01 Negative Pentamer (ProImmune) as negative control. Each sample stained for ApOBKTTKQSFDL (SEQ ID NO:2) pentamer had its corresponding negative control stain. Cells were washed and then stained for CD8 (LT8) andddCD19 (HIB19). Cells were again washed after staining and resuspended in 1% paraformaldehyde in 1% BSA/0.1% sodium azide and analyzed. ApOBKTTKQSFDL (SEQ ID NO:2) pentamer positive cells for each sample were determined based on the corresponding Negative Pentamer.

For test [1], the system named is human PBMCs. In words: Activation Induced Marker (AIM) assay in human PBMC. In kind it is cell-based. On the procedure: Cryo-preserved PBMCs were thawed, rinsed in anti-aggregation solution (Immunospot), and seeded in culture plates at a density of 3×10^6 cells per ml of RPMI 1640 medium supplemented with 10% heat-inactivated pooled human serum and 1× antibiotic/antimycotic. After resting for 4 hours, cells were preincubated with 0.5 mg/ml anti-CD40 antibody for 15 minutes then stimulated with 20 μg/ml P210 peptide, 0.5× T cell stimulation cocktail containing PMA and ionomycin (Thermo Fisher), or CMV (pp65) Peptide Pool (StemCell Tech) as a non-relevant antigen control, whereas cells without treatment served as non-stimulated control. Cells were harvested 16 hours after seeding, stained for viability (LIVE/DEAD Fixable Aqua Dead Stain Kit, Thermo Fisher), and subjected to cell surface staining for flow cytometry using the following antibodies: CD4, CD8, CD25, CD69, OX40 (CD134), CD137 (4-1 BB) and CD154 (CD40L). Isotypes were used as staining control and eFluor506 labelled CD14, CD16 and CD19 antibodies were used as dump staining to exclude B cells, dendritic cells, macrophages, granulocytes, eosinophil cells and neutrophil cells. The results are expressed as fold change (ratio between the signal in the antigen stimulated condition and the signal in the unstimulated condition) for each subject, consistent with the reported AIM assay.

Test [2] deals with PBMCs from HLA-A*02:01(+) volunteers. In words: ApoB KTTKQSFDL pentamer(+) CD8+ T cells in human PBMCs cultured with P210. In kind it is cell-based. To be noted: PBMCs cultured with 20 μg/ml P210 for 5 days. On the procedure: as §1
The subject of test [3] is human PBMCs. In words: Peptide stimulation of human PBMC (T effector / effector memory, Response Index). In kind it is cell-based. The note with it: 20 μg/ml P210, 72 h; ACS PBMCs compared to controls. As for the experimental part: Cryo-preserved PBMCs were thawed, rinsed and cultured as in AIM assay but without resting. Cells were stimulated with 20 μg/ml P210 peptide or 0.5× T cell stimulation cocktail containing phorbol 12-myristate 13-acetate (PMA) and ionomycin (Thermo Fisher) with non-treated cells serving as negative control. Culture medium was added at ⅓ of the starting volume 48 hours later to replenish the nutrients in the medium. Cells were harvested 72 hours after seeding, stained for viability (LIVE/DEAD Fixable Aqua Dead Stain Kit, ThermoFisher), and subjected to cell surface staining for flow cytometry using the following antibodies: CD3, CD4, CD8, CD45RA, CD45RO, CD62L, and CD197 (CCR7). Isotypes were used as staining control. CD4^+ or CD8^+ T Effector cells were gated on CD45RO^+CD62L^−CD197^−. T Effector Memory cells were CD45RO^+CD45RA^−CD62L^−CD197^−.
Results were Tabulated as Response Index Using the Following Calculation:
(% peptide stimulation−% no stimulation)/(% cocktail stimulation)×100.
The results are expressed as Response Index to account for inherent variations introduced by culturing cells in vitro over time, controlled for by assessing response relative to baseline cell phenotype (% no stimulation) and maximal stimulation (% cocktail stimulation) for each subject PBMC. Each data point represents one subject.

In another test the test system is A2Kb Tg ApoE-/- mice. In words: Functional expression of A2Kb transgene (A2V7 immunization). The note with it: male mice, 20 μg/100 μl s.c. in IFA; compared to IFA-injected mice, P<0.05. In kind it is in vivo, mouse. On the procedure:
Male A2Kb Tg ApoE^−/− mice were immunized with the HLA-A*02:01-restricted peptide A2V7 from human hepatitis C virus (HCV NS5a 1987-1995, VLSDFKTWL (SEQ ID NO:34); ProImmune) emulsified in incomplete Freund's adjuvant (IFA; MP Biomedicals) at 9 and 10 weeks of age by subcutaneous injection at a dose of 20 μg/100 μl. Mice immunized with 100 μl IFA alone served as control. Mice were euthanized at 11 weeks of age. HLA-A*02:01 restricted antigen specific immune response was evaluated by flow cytometric analysis of splenocytes stained with CD19 (6D5), CD8a (KT15), and PE-conjugated HLA-A*02:01/A2V7-pentamer (ProImmune).

[4] abbreviates: 20 μg/ml P210, 16 h, ACS patients compared to control subjects.

Consider “KTTKQSFDL (listed as Homo sapiens) [Peptide 1]”, for which, in the test with HLA-A*02:01 (sequential 9-mer P210 peptides), the “binding to HLA-A*02:01 (REVEAL binding score)” value is recorded as “KTTKQSFDL*”. Moreover, the “binding to HLA-A*02:01 (REVEAL binding score), in words” value with HLA-A*02:01 (listed as First 9-mer sequence in P210) is recorded as “high binding score”; with HLA-A*02:01 (listed as first 9-mer), “scored well, comparable to the positive control”.

“KTTKQSFDLSVKAQYKKNKH (listed as Homo sapiens) [Peptide P210, ApoB-100 derived peptide P210 (ApoB-100 3136-3155)]”: in the test on human PBMCs [1] (setting [4]), the “CD8+CD69+CD134+ T cells after P210 stimulation” value is “no such increase was observed” and the “mean increase in CD4+CD69+CD134+ T cells after P210 stimulation” value came out at 1.5 fold. Also, the “markers for other AIM(+) cells (CD25+CD134+, CD69+CD154+, CD134+CD137+)” value in the test with human PBMCs [1] (after P210 stimulation, ACS vs controls) is recorded as “not different compared to Controls”. In test [2], the “tested samples with an increase of pentamer specific CD8+ T cells” value is listed as 5 out of 8. Also, in the test on human PBMCs [3], the “CD4+ T effector cell response to P210” value is recorded as “not significantly different”, the “CD8+ T effector memory response to P210” value was “significant increase” and the “CD8+ T effector response to P210” value is on record as “significant increase”.

Consider “VLSDFKTWL [Peptide A2V7, HLA-A*02:01-restricted peptide from human hepatitis C virus (HCV NS5a 1987-1995)]”, for which the “A2V7-pentamer+ CD8+ T cells in the spleen” value in the test with A2Kb Tg ApoE-/- mice is recorded as “significantly increased”.

(Values after patent US20230355763A1, “NANOPARTICLE VACCINES AND USES THEREOF FOR PROPHYLAXIS AND TREATMENT OF ATHEROSCLEROSIS USING PEPTIDE 210 AS AN ANTIGEN” (CEDARS-SINAI MEDICAL CENTER, priority 2022, published 2023).)
